The values below are quoted from earlier work in US11446274B2, “Use of dianhydrogalactitol or derivatives or analogs thereof for treatment of pediatric central nervous system malignancies” (DelMar Pharmaceuticals, Inc., priority 2015, dated 2022).

Like-named read-outs stand apart in the source and are kept apart here.

Data set [1] addresses glycogen synthase kinase-3β (GSK-3β) (Homo sapiens, UniProt P49841). The settings on record: cited from earlier work.
For data set [2], the system named is cells that are either MGMT-positive or MGMT-negative or MMR-proficient or MMR-deficient. Particulars: cited from earlier work.

Sequence of glycogen synthase kinase-3β (GSK-3β) (P49841 whole entry, species assumed): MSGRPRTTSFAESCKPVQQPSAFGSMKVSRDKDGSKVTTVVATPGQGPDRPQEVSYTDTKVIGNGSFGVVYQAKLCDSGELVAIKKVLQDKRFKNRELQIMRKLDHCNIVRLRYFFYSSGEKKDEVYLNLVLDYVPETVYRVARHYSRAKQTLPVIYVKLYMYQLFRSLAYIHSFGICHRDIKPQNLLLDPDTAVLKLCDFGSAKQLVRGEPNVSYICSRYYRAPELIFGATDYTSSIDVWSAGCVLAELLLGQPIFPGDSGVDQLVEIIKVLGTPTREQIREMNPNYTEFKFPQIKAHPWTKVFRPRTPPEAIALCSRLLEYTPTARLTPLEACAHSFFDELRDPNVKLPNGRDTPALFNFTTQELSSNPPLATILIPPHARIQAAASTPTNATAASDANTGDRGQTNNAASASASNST

As to `CN1C(=O)/C(=C2/C(=O)Nc3ccccc32)c2ccccc21` [Meisoindigo, meisoindigo], the “concentration for inhibition of GSK-3β” value in data set [1] was 5 to 50 nM.

Take `N.N.[Cl][Pt][Cl]` [cisplatin]: the sensitivity result is on record as “Resistant” in data set [2] (MGMT Negative, MMR-Deficient); “Sensitive” in data set [2] (MGMT Negative, MMR-Proficient); “Resistant” in data set [2] (MGMT Positive, MMR-Deficient); “Sensitive” in data set [2] (MGMT Positive, MMR-Proficient).
